Measured values from patent publication US8691818B2, “Cyclic triazo and diazo sodium channel blockers” (University Of Greenwich, priority 2008, dated 2014).
Counter-ions that a name gives are not always drawn.

Columns and labels:
sodium channel = assay: [14C]guanidine flux: veratrine-evoked uptake of [14C]guanidine into rat forebrain synaptosomes (primary sodium channel assay); format: biochemical; conditions: 30° for 2½ min
Experimental: The screening strategy is designed to select compounds with appropriate sodium channel blocking activity and low side effect liability. To this end all compounds are processed through the primary sodium channel assay (veratrine-evoked uptake of [^14C]guanidine into rat forebrain synaptosomes) and IC50 values computed from generated concentration-effect curves.
Experiments were performed using forebrain (whole brain less cerebellum/medulla) from Male Wistar rats weighing 175-250 g. All efforts were made to reduce the number of animals used and all experiments were carried out in accordance with the UK Animals (Scientific Procedures) Act, 1986 and the European Community Council Directive of 24 Nov. 1986 (86/609/EEC). Following killing of animals by stunning and decapitation, the forebrain (whole brain less cerebellum/medulla) was rapidly dissected and transferred to a weighed tube containing ice-cold 0.25M sucrose.
Synaptosomes (heavy and light mitochondrial fraction containing synaptosomes) were prepared by transferring the forebrain (of known wet weight) to a glass Potter vessel to which 9 volumes ice-cold 0.25M sucrose had been added and homogenising, using a teflon pestle, by 8 ‘up and down strokes’ of a Braun Potter S motor driven homogeniser set to 900 rpm. The resulting homogenate was centrifuged at 1036×g at 4° for 10 min and the supernatant collected. The remaining pellet was resuspended, as above, in fresh ice-cold 0.25M sucrose and the centrifugation step repeated. The supernatant fractions were pooled and centrifuged at 40,000×g (average) at 4° for 15 min and the resulting pellet resuspended in the appropriate assay buffer at a concentration of 20-25 mg wet weight per ml appropriate assay buffer.
Both assays were carried out using 14 ml polypropylene test tubes to which a range of concentrations of the compounds under test were added.
The [^14C] guanidinine flux assay was measured using the method of Pauwels P J et al (1986) but carried out@30° for 2½ min.
(§1) Data are presented as mean±sem of number of experiments indicated in brackets.

[1] = biological target: T1, DiHydroFolate Reductase (DHFR) (Rattus norvegicus, UniProt Q920D2); assay: Inhibition of binding of [3H]methotrexate to rat liver homogenate supernatant; conditions: for inhibition at 125 µM: read-out: [3H]mtx binding (% inhibition @ 125 μM)
T1 construct: from tissue; host or cells: rat liver homogenate supernatant
T1 sequence (Q920D2 1-187): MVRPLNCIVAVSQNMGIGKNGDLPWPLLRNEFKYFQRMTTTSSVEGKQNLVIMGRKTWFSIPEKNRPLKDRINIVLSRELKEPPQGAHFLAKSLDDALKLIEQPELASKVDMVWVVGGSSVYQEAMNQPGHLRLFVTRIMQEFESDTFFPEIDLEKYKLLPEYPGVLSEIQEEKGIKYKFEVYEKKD
Experimental: All steps were carried out at 4° (or on ice). Freshly dissected rat liver was dissected into 0.25M ice-cold Sucrose and subsequently homogenised (U-turrax) in 50 mM pH 6.0 phosphate buffer (10 ml/g tissue) containing 15 mM Dithiothreitol. The resulting homogenate was centrifuged@47,500×g for 20 min and supernatant (filtered through cotton wool to remove fatty lumps) stored @ −80° before use (Rothenberg et al).
Inhibition of the binding of [^3H]methotrexate to rat liver homogenate supernatant fractions were carried out essentially as described by Arons et al, 1975.
as §1

| melting point [°C] | Structure (SMILES) | other results |
| --- | --- | --- |
| 213 to 215 | Cn1nc(-c2ccccc2OC(F)F)c(N)nc1=N (as salt: methanesulfonate) [CEN-146, 5(3)-Amino-6-(2-difluoromethoxyphenyl)-2,3(2,5)-dihydro-3(5)-imino-2-methyl-1,2,4-triazine methanesulfonate] | – |
| 175 to 177 | CCn1nc(-c2ccc3ccccc3c2)c(N)nc1=N (as salt: methanesulfonate) [CEN-75, 5(3)-Amino-6-(2-naphthyl)-2,3(2,5)-dihydro-3(5)-imino-2-ethyl-1,2,4-triazine methanesulfonate] | – |
| 240 to 242 | Cn1nc(C(C)(c2ccccc2)c2ccccc2)c(N)nc1=N (as salt: methanesulfonate) [CEN-149, 5(3)-Amino-6-(1,1-diphenylethyl)-2,3(2,5)-dihydro-3(5)-imino-2-methyl-1,2,4-triazine methanesulfonate] | – |
| 148 to 150 | Nc1nnc(-c2ccccc2OC(F)(F)F)c(N)n1 [CEN-56, 3,5-Diamino-6-(2-trifluoromethoxyphenyl)-1,2,4-triazine] | – |
| 180 to 181 | Cn1nc(-c2cccc(-c3ccccc3)c2)c(N)nc1=N (as salt: methanesulfonate) [CEN-161, 5(3)-Amino-6-(3-biphenyl)-2,3(2,5)-dihydro-3(5)-imino-2-methyl-1,2,4-triazine methanesulfonate] | – |
| 243 to 244 | Cn1nc(-c2ccc3ccccc3c2)c(N)nc1=N (as salt: methanesulfonate) [CEN-76, 5(3)-Amino-6-(2-naphthyl)-2,3(2,5)-dihydro-3(5)-imino-2-methyl-1,2,4-triazine methanesulfonate] | – |
| 224 to 226 | CCn1nc(-c2cccc(-c3ccccc3)c2)c(N)nc1=N (as salt: methanesulfonate) [CEN-162, 5(3)-Amino-6-(3-biphenyl)-2,3(2,5)-dihydro-3(5)-imino-2-ethyl-1,2,4-triazine methanesulfonate] | – |

Continued, molecule first:

| Structure (SMILES) | melting point [°C] | other results |
| --- | --- | --- |
| CCn1nc(-c2cccs2)c(N)nc1=N (as salt: methanesulfonate) [CEN-62, 5(3)-Amino-6-(2-thienyl)-2,3(2,5)-dihydro-3(5)-imino-2-ethyl-1,2,4-triazine methanesulfonate] | 194 to 196 | – |
| Cn1nc(-c2cc(Br)c(Br)o2)c(N)nc1=N (as salt: methanesulfonate) [CEN-135, 5(3)-Amino-6-[2-(4,5-dibromofuryl)]-2,3(2,5)-dihydro-3(5)-imino-2-methyl-1,2,4-triazine methanesulfonate] | 183 to 185 | – |
| Cn1nc(-c2cccs2)c(N)nc1=N (as salt: methanesulfonate) [CEN-61, 5(3)-Amino-6-(2-thienyl)-2,3(2,5)-dihydro-3(5)-imino-2-methyl-1,2,4-triazine methanesulfonate] | 201 to 202 | – |
| Cn1nc(C2(c3ccc(Cl)cc3)CCCC2)c(N)nc1=N (as salt: methanesulfonate) [CEN-150, 5(3)-Amino-6-{1-[1-(4-chlorophenyl)]cyclopentyl}-2,3(2,5)-dihydro-3(5)-imino-2-methyl-1,2,4-triazine methanesulfonate] | 272 to 273 | – |
| CCn1nc(-c2cccc(C(F)(F)F)c2Cl)c(N)nc1=N (as salt: methanesulphonate) [CEN-178, 5(3)-Amino-6-(2-chloro-3-trifluoromethyphenyl)-2,3(2,5)-dihydro-3(5)-imino-2-ethyl-1,2,4-triazine methanesulphonate] | 207 to 209 | – |
| CCn1nc(-c2cc(OC)c(OC)c(OC)c2)c(N)nc1=N (as salt: methanesulfonate) [CEN-119, 5(3)-Amino-6-(3,4,5-trimethoxyphenyl)-2,3(2,5)-dihydro-3(5)-imino-2-ethyl-1,2,4-triazine methanesulfonate] | 305 to 306 | – |
| Cn1nc(-c2cc(C(F)(F)F)cc(Cl)c2F)c(N)nc1=N (as salt: mesylate) [CEN-202, 5(3)-Amino-6-(3-chloro-2-fluoro-5-trifluoromethyphenyl)-2,3(2,5)-dihydro-3(5)-imino-2-methyl-1,2,4-triazine mesylate] | 277 to 279 | – |
| Cn1nc(-c2cccc3c2CCCC3)c(N)nc1=N (as salt: methanesulfonate) [CEN-120, 5(3)-Amino-6-[1-(5,6,7,8-tetrahydronaphthyl)]-2,3(2,5)-dihydro-3(5)-imino-2-methyl-1,2,4-triazine methanesulfonate] | 236 to 237 | – |
| CCn1nc(-c2sc(Cl)c(Cl)c2Cl)c(N)nc1=N (as salt: methanesulfonate) [CEN-195, 5(3)-Amino-6-{2-(3,4,5-trichloro)thienyl}-2,3(2,5)-dihydro-3(5)-imino-2-ethyl-1,2,4-triazine methanesulfonate] | 202 to 204 | – |
| Cn1nc(-c2sc(Cl)c(Cl)c2Cl)c(N)nc1=N (as salt: methanesulfonate) [CEN-194, 5(3)-Amino-6-{2-(3,4,5-trichloro)thienyl}-2,3(2,5)-dihydro-3(5)-imino-2-methyl-1,2,4-triazine methanesulfonate] | 192 to 194 | – |
| CCn1nc(-c2cc(C(F)(F)F)cc(Cl)c2F)c(N)nc1=N (as salt: mesylate) [CEN-203, 5(3)-Amino-6-(3-chloro-2-fluoro-5-trifluoromethyphenyl)-2,3(2,5)-dihydro-3(5)-imino-2-ethyl-1,2,4-triazine mesylate] | 277 to 279 | – |
| Cn1nc(-c2cccs2)c(N)nc1=N [CEN-61, 5(3)-Amino-6-(2-thienyl)-2,3(2,5)-dihydro-3(5)-imino-2-methyl-1,2,4-triazine methanesulfonate] | – | IC50 (sodium channel): 676 µM; inhibition at 125 µM ([1]; 125 μM): 87% |
| CCn1nc(-c2sc(Cl)c(Cl)c2Cl)c(N)nc1=N [CEN-195, 5(3)-Amino-6-{2-(3,4,5-trichloro)thienyl}-2,3(2,5)-dihydro-3(5)-imino-2-ethyl-1,2,4-triazine methanesulfonate] | – | IC50 (sodium channel): 4 µM; inhibition at 99 µM ([1]; read-out: [3H]mtx binding % inhibition (* 99 μM, *** uses fresh batch of supernatant), 99 μM, fresh batch of supernatant): -2% |
| CCCC(CCC)c1nnc(N)nc1N [CEN-170, 3,5-Diamino-6-(1-propylbutyl)-1,2,4-triazine tosylate] | – | IC50 (sodium channel): 263 µM; inhibition at 125 µM ([1]; 125 μM): 29% |
| COc1cc(-c2nn(C)c(=N)nc2N)cc(OC)c1OC (as salt: methanesulfonate) [CEN-101, 5(3)-Amino-6-(3,4,5-trimethoxyphenyl)-2,3(2,5)-dihydro-3(5)-imino-2-methyl-1,2,4-triazine methanesulfonate] | 258 to 259 | – |
| CCn1nc(-c2cc(C(C)(C)C)cc(C(C)(C)C)c2)c(N)nc1=N (as salt: methanesulphonate) [CEN-189, 5(3)-Amino-6-(3,5 bis-tert-butylphenyl)-2,3(2,5)-dihydro-3(5)-imino-2-ethyl-1,2,4-triazine methanesulphonate] | 258 to 261 | – |
| Cn1cc(-c2cccc(Cl)c2Cl)c(N)nc1=N [CEN-42, 4(2)-Amino-5-(2,3-dichlorophenyl)-2,4(2,5)-dihydro-2(4)-imino-1-methyl pyrimidine] | – | IC50 (sodium channel; listed as 42): 617 µM; [3H]mtx binding (% inhibition @ 125 μM) ([1]; 125 μM, listed as 42, 125 µM): 32% |
| CCn1nc(-c2cccc(-c3ccccc3)c2)c(N)nc1=N [CEN-162, 5(3)-Amino-6-(3-biphenyl)-2,3(2,5)-dihydro-3(5)-imino-2-ethyl-1,2,4-triazine methanesulfonate] | – | IC50 (sodium channel): 12 µM; inhibition at 125 µM ([1]; 125 μM): 57% |
| Cn1nc(-c2cc(C(F)(F)F)cc(C(F)(F)F)c2)c(N)nc1=N (as salt: methanesulfonate) [CEN-99, 5(3)-Amino-6-[3,5-(bis-trifluoromethyl)phenyl]-2,3(2,5)-dihydro-3(5)-imino-2-methyl-1,2,4-triazine methanesulfonate] | 179 to 181 | – |
| CCn1nc(-c2cccc(C(F)(F)F)c2Cl)c(N)nc1=N [CEN-178, 5(3)-Amino-6-(2-chloro-3-trifluoromethyphenyl)-2,3(2,5)-dihydro-3(5)-imino-2-ethyl-1,2,4-triazine methanesulphonate] | – | IC50 (sodium channel): 28 µM; inhibition at 125 µM ([1]; 125 μM): 27% |
| Nc1nnc(-c2ccc3ccccc3n2)c(N)n1 [CEN-173, 3,5-Diamino-6-(2-quinolyl)-1,2,4-triazine] | – | IC50 (sodium channel): 159 µM; inhibition at 125 µM ([1]; 125 μM): 34% |
